This note sets out measurements from PMC6199744, “Development of Chemical Proteomics for the Folateome and Analysis of the Kinetoplastid Folateome” (ACS Infectious Diseases, 2018).

Where two headings read alike, the source gives them in different places.

What all share (assay type): binding
The target of experiment [1] is T1, HeLa cell extract proteins (Homo sapiens, UniProt O43592).
T1 construct: endogenous in cells; host or cells: HeLa cell extract
T1 sequence (O43592 1-962): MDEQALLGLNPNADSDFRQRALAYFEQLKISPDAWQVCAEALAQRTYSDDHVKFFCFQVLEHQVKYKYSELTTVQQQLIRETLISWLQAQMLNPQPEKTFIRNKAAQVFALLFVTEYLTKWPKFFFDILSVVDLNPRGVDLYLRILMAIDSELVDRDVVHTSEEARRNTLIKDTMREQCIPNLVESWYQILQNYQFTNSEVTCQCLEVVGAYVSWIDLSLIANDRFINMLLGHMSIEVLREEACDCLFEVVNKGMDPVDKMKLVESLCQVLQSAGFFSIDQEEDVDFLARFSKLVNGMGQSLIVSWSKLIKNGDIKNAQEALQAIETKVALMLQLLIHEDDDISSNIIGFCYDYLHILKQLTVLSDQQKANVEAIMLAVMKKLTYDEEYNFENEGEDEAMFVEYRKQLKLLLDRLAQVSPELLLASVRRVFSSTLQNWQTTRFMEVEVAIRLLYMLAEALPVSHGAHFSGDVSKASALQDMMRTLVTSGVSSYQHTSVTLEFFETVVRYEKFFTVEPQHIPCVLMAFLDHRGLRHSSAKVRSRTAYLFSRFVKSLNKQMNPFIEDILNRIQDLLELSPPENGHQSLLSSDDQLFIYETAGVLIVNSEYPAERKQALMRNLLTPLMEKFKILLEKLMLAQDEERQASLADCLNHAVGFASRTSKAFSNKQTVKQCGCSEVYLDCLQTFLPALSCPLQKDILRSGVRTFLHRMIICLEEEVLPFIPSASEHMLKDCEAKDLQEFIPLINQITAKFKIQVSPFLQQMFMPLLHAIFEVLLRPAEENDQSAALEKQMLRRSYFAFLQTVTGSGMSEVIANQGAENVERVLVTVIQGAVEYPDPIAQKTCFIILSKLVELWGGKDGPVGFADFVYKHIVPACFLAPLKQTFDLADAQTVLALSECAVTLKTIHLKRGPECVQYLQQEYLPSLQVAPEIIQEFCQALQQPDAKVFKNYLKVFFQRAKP

In experiment [2] the target is T2, HeLa cell extract proteins (Homo sapiens, UniProt P14868).
T2 construct: endogenous in cells; host or cells: HeLa cell extract
T2 sequence (P14868 1-501): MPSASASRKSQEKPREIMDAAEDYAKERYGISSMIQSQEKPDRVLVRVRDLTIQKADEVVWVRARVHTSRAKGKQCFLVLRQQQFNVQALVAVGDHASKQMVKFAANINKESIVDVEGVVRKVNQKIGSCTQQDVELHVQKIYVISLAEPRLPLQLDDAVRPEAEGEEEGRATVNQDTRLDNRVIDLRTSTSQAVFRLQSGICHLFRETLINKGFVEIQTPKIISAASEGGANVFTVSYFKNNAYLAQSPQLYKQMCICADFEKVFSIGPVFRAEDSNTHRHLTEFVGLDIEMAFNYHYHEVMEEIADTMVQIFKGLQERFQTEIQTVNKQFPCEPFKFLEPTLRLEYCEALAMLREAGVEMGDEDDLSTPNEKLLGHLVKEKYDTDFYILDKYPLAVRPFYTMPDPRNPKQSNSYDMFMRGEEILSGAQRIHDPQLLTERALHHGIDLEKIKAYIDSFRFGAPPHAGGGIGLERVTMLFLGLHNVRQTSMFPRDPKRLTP

Experiment [3] concerns the target T3, HeLa cell extract proteins (Homo sapiens, UniProt O95197).
T3 construct: endogenous in cells; host or cells: HeLa cell extract
T3 sequence (O95197 1-1032): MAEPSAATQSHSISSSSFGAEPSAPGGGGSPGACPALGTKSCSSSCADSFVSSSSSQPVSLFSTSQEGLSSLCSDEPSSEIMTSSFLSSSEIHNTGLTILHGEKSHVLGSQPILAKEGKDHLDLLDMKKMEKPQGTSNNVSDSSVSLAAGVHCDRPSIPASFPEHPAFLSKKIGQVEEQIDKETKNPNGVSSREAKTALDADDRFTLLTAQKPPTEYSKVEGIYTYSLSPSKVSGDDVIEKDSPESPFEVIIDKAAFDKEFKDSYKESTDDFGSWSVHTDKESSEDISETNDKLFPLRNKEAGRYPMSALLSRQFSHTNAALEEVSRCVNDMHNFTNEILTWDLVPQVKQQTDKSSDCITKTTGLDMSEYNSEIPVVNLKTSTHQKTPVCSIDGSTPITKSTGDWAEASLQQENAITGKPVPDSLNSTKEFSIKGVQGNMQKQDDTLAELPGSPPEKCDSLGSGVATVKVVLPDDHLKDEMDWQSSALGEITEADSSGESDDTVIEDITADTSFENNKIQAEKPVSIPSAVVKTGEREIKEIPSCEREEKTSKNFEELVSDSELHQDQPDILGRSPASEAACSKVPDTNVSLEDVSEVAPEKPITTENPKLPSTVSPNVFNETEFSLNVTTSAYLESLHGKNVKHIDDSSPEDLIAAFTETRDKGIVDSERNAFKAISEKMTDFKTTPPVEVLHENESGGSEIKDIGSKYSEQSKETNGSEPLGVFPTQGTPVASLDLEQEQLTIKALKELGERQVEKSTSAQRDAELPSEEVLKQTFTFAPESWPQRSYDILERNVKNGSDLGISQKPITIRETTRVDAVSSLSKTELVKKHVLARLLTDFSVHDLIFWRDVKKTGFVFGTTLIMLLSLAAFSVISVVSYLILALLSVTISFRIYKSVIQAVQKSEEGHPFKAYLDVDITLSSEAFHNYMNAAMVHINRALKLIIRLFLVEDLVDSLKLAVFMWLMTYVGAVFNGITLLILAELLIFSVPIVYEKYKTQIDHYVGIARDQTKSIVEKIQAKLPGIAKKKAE

Experiment [4] addresses T4, HeLa cell extract proteins (Homo sapiens, UniProt Q96EY8).
T4 construct: endogenous in cells; host or cells: HeLa cell extract
T4 sequence (Q96EY8 33-250): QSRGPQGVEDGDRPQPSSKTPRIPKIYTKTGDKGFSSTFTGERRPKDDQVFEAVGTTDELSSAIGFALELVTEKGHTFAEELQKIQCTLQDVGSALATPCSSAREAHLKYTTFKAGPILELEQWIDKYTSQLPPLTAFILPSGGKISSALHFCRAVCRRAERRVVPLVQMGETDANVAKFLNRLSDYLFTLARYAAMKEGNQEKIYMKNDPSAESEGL

As for `Nc1nc2c(c(=O)[nH]1)N(C=O)C(CNc1ccc(C(=O)N[C@@H](CCC(=O)O)C(=O)O)cc1)CN2` (stereo partly shown) [LEU, leucovorin], the “fold changes relative to vehicle control” value in experiment [1] (HeLa, protein XPOT) is 0.94; in experiment [2] (HeLa, protein DARS), 0.94; in experiment [3] (protein RTN3, HeLa) it was 0.97; in experiment [4] (HeLa, protein MMAB (COB)) it was 0.99.

Take `Nc1nc2[nH]cc(CCc3ccc(C(=O)N[C@@H](CCC(=O)O)C(=O)O)cc3)c2c(=O)[nH]1` [PTX, pemetrexed]: the “fold changes relative to vehicle control” value in experiment [1] was 0.84; in experiment [2] it was 0.98; in experiment [3] it was 0.85; in experiment [4], 0.85.

For the molecule `CCCCCCOc1ccc(Cc2cnc(N)nc2N)cc1` [compound 1], the “fold changes relative to vehicle control” value in experiment [1] (HeLa, protein XPOT) was 0.95; in experiment [2] (protein DARS, HeLa), 1.02; in experiment [3] (protein RTN3, HeLa) it was 1; in experiment [4] (HeLa, protein MMAB) it was 0.95.

As for `CCCCCCOc1cccc(Cc2cnc(N)nc2N)c1` [compound 2], the “fold changes relative to vehicle control” value in experiment [1] (HeLa, protein XPOT) stood at 1.02; in experiment [2] (protein DARS, HeLa), 1.15; in experiment [3] (protein RTN3, HeLa), 1.14; in experiment [4] (HeLa, protein MMAB) it was 0.94.

As for `Nc1nc2cccc(-c3ccccc3)c2n1Cc1ccc(Cl)c(Cl)c1` [compound 3], the “fold changes relative to vehicle control” value in experiment [1] (HeLa, protein XPOT) came out at 1.08; in experiment [2] (protein DARS, HeLa) it was 0.93; in experiment [3] (protein RTN3, HeLa), 0.9; in experiment [4] (HeLa, protein MMAB), 0.96.

As to `NCCOCCOCC(=O)Nc1nc2ncc(CNc3ccc(C(=O)NC(CCC(=O)O)C(=O)O)cc3)nc2c(=O)[nH]1` (stereo not shown) [compound 6], the “fold changes relative to vehicle control” value in experiment [1] (HeLa, protein XPOT) was 0.94; in experiment [2] (HeLa, protein DARS), 0.99; in experiment [3] (protein RTN3, HeLa) it was 0.94; in experiment [4] (HeLa, protein MMAB (COB)), 0.51.

On to `NCCCNc1ccc(C(=O)NC(CCC(=O)O)C(=O)O)cc1` (stereo not shown) [compound 7], for which the “fold changes relative to vehicle control” value is 0.99 in experiment [1] (HeLa, protein XPOT); 1.06 in experiment [2] (HeLa, protein DARS); 0.84 in experiment [3] (protein RTN3, HeLa); 0.94 in experiment [4] (HeLa, protein MMAB (COB)).
